Source: US20200017495A1, “NOVEL HETEROCYCLIC COMPOUNDS AND THEIR USE IN PREVENTING OR TREATING BACTERIAL INFECTIONS” (priority 2017, published 2020)

Assays:
Test in all cases: MIC of compounds alone and combined with antibacterials, broth microdilution (CLSI)
Type in all cases: cell-based
[1] = tested on: Providencia stuartii (PST) isolates
Experimental: (§1) Method 2: MIC of Compounds Alone and Combined with Antibacterials Against Bacterial Isolates
(§2) Compounds of the present invention were assessed against genotyped bacterial strains (Table 3, 4) alone or in combination with an antibacterial (Table 2). […]. Briefly, compounds alone according to the invention were prepared in DMSO and spotted (2 μL each) on sterile polystyrene plates (Corning, 3788). Combinations of compounds and antibiotics dilutions were prepared in DMSO and spotted (1 μL each) on sterile polystyrene plates (Corning, 3788). Log phase bacterial suspensions were adjusted to a final density of 5.10^5 CFU/mL in cation-adjusted Mueller-Hinton broth (ca-MHB; Becton-Dickinson and Company) and added to each well (98 μL). Microplates were incubated for 16-20 h at 35° C. in ambient air. The MIC of the compounds was defined as the lowest concentration of said compounds that prevented bacterial growth as read by visual inspection. The MIC of ATB at each compound concentration was defined as the lowest concentration of ATB that prevented bacterial growth as read by visual inspection.

[2] = tested on: Salmonella typhimurium (STY) isolates; settings: strain STY S3371; genotype OXA-1
Experimental: as §1, §2

[3] = tested on: Citrobacter koseri (CKR) isolates
Experimental: as §1
(§3) Compounds of the present invention were assessed against genotyped bacterial strains (Table 3, 4) alone or in combination with an antibacterial (Table 2). […] Log phase bacterial suspensions were adjusted to a final density of 5.10^5 CFU/mL in cation-adjusted Mueller-Hinton broth (ca-MHB; Becton-Dickinson and Company) and added to each well (98 μL). Microplates were incubated for 16-20 h at 35° C. in ambient air. The MIC of the compounds was defined as the lowest concentration of said compounds that prevented bacterial growth as read by visual inspection. The MIC of ATB at each compound concentration was defined as the lowest concentration of ATB that prevented bacterial growth as read by visual inspection.

[4] = tested on: Escherichia coli (ECO) isolates
Experimental: as §1, §3

SMILES: CO/N=C(\C(=O)N[C@@H]1C(=O)N2C(C(=O)O)=C(COC(N)=O)CS[C@H]12)c1ccco1 [FUR, Cefuroxime]
- MIC ([1]; strain PST UFR94, genotype CTX-M-14): >256 µg/mL
- MIC ([1]; strain PST UFR95, genotype TEM-24): 128 µg/mL
- MIC ([1]; strain PST UFR235, genotype VEB-1): 256 µg/mL
- MIC [2]: 32 µg/mL
- MIC ([3]; strain CKO ROU, genotype TEM-1, SHV-12, CTX-M-15, OXA-1, OXA-48): 64 µg/mL
- MIC ([3]; strain CKO UFR149, genotype OXA-48): >256 µg/mL
- MIC ([3]; strain CKO UFR150, genotype TEM-1, OXA-48): 64 µg/mL
- MIC ([4]; strain ECO 4133, genotype TEM-30, OXA-1): 16 µg/mL
- MIC ([4]; strain ECO 5302, genotype TEM-1, OXA-1): 32 µg/mL
- MIC ([4]; strain ECO 131119, genotype TEM-1, OXA-48): 8 µg/mL
- MIC ([4]; strain ECO 180070, genotype TEM-1, CTX-M-15): >256 µg/mL
- MIC ([4]; strain ECO 190314, genotype CTX-M-1): >256 µg/mL
- MIC ([4]; strain ECO 190317, genotype TEM-1, SHV-12, CTX-M-15, OXA-1): >512 µg/mL
- MIC ([4]; strain ECO 190457, genotype CTX-M-15, OXA-1): >256 µg/mL
- MIC ([4]; strain ECO 190549, genotype CTX-M-1): >256 µg/mL
- MIC ([4]; strain ECO 200159, genotype TEM-1, CTX-M-14): >256 µg/mL
- MIC ([4]; strain ECO 200259, genotype CTX-M-14): >256 µg/mL
- MIC ([4]; strain ECO 200344, genotype CTX-M-1): >256 µg/mL
- MIC ([4]; strain ECO 260096, genotype CTX-M-132): >256 µg/mL
- MIC ([4]; strain ECO 260304, genotype CTX-M-15): >256 µg/mL
- MIC ([4]; strain ECO 260508, genotype TEM-1, CTX-M-15, OXA-1): >256 µg/mL
- MIC ([4]; strain ECO RGN238, genotype OXA-1): 16 µg/mL
- MIC ([4]; strain ECO UFR15, genotype TEM-1, OXA-48): 16 µg/mL
- MIC ([4]; strain ECO UFR16, genotype TEM-1, CTX-M-15, OXA-1, OXA-48): >256 µg/mL
- MIC ([4]; strain ECO UFR17, genotype TEM-1, CTX-M-15, CMY-2, OXA-1, OXA-181): >256 µg/mL
- MIC ([4]; strain ECO UFR18, genotype CTX-M-15, OXA-204): >256 µg/mL
- MIC ([4]; strain ECO UFR19, genotype CTX-M-15, CMY-2, OXA-1, OXA-204): >256 µg/mL
- MIC ([4]; strain ECO UFR20, genotype SHV-1, CTX-M-15, OXA-1, OXA-232): >256 µg/mL
- MIC ([4]; strain ECO UFR39, genotype CTX-M-15, NDM-1): >256 µg/mL
- MIC ([4]; strain ECO UFR61O, genotype TEM-1, KPC-2): >256 µg/mL
- MIC ([4]; strain ECO UFR62, genotype TEM-1, CTX-M-9, KPC-2): >256 µg/mL
- MIC ([4]; strain ECO UFR74, genotype SHV-1, DHA-1): >256 µg/mL
- MIC ([4]; strain ECO UFR86, genotype ompC-, ompF-): 64 µg/mL
- MIC ([4]; strain ECO UFR174, genotype TEM-1, KPC-2, OXA-1): >256 µg/mL
- MIC ([4]; strain ECO UFR175, genotype TEM-1, KPC-2, OXA-9): >256 µg/mL
- MIC ([4]; strain ECO UFR176, genotype KPC-3, OXA-9*): >256 µg/mL
- MIC ([4]; strain ECO UFR184, genotype CTX-M-15, CMY-4, OXA-1, OXA-204): >256 µg/mL
- MIC ([4]; strain ECO UFR185, genotype OXA-48): >256 µg/mL
- MIC ([4]; strain ECO UFR186, genotype TEM-1, CTX-M-14, OXA-48): >256 µg/mL
- MIC ([4]; strain ECO UFR187, genotype CTX-M-15, OXA-48): >256 µg/mL
- MIC ([4]; strain ECO UFR189, genotype TEM-1, CTX-M-15, OXA-48): >256 µg/mL
- MIC ([4]; strain ECO UFR190, genotype CTX-M-24, OXA-48): >256 µg/mL
- MIC ([4]; strain ECO UFR191, genotype TEM-1, CTX-M-24, OXA-48): >256 µg/mL
- MIC ([4]; strain ECO UFR207, genotype CTX-M-15): >256 µg/mL
- MIC ([4]; strain ECO UFR208, genotype SHV-12): >256 µg/mL
- MIC ([4]; strain ECO UFR209, genotype TEM-1, CTX-M-15): >256 µg/mL
- MIC ([4]; strain ECO UFR210, genotype SHV-12): >256 µg/mL
- MIC ([4]; strain ECO UFR211, genotype TEM-24): 64 µg/mL
- MIC ([4]; strain ECO UFR212, genotype CMY-2): >256 µg/mL
- MIC ([4]; strain ECO UFR218, genotype TEM-1, SHV-1, CTX-M-15): >256 µg/mL
